Results reported in patent US8148333B2, “Stable composition comprising a PTHrP analogue” (priority 2006, dated 2012).

Legend:
bacteria, yeast and mold = experiment: Preservative effectiveness test, screening of preservatives (Table 3); type: cell-based; settings: Table 3 screening
Description: Solutions were prepared containing [Glu^22,25, Leu^23,28,31, Aib29, Lys^26,31]hPTHrP(1-34)NH2 (SEQ ID NO.: 2) 2 mg/ml, acetate buffer 6 mM and water for injection, with various different preservatives added at concentrations recommended for effective antimicrobial activity. Solutions were prepared at room temperature, by dissolution of the various ingredients in water for injection, with stirring over <30 minutes to ensure complete dissolution, Solutions were filtered through 0.2 micron filter and filled into glass vials, to which a rubber stopper was applied and crimped in place to ensure complete closure.
The solution with methylparaben was less acceptable due to precipitation and inactivity immediately after manufacture of the solution. The solutions were then stored for up to 3 months at 25° C., and up to 4.5 months at 5° C. and the preservative effectiveness test repeated. as described in Example 5.

Bacteria; Yeast and mold = experiment: Anti-microbial effectiveness test, overall result (conformity); type: cell-based; settings: for preservative effectiveness results for both Bacteria and Yeasts/moulds: immediately after manufacture
[1] = Chemical stability of formulations: (SEQ ID NO.: 2) content (Table 6); type: physicochemical; settings: formulations of Table 6
Description: TABLE 6 details the chemical stability of the formulations described in Example 4.

SMILES	suitability as preservative for use with SEQ ID NO.: 2 (precipitation and/or inactivity in preservative activity) (bacteria, yeast and mold)	efficacy against Bacteria (Bacteria; Yeast and mold; after 3 and 4.5 months storage)	preservative effectiveness results for both Bacteria and Yeasts/moulds (Bacteria; Yeast and mold)	preservative efficacy for both Bacteria and Yeasts/moulds (Bacteria; Yeast and mold; after 3 and 4.5 months storage)	solution stability, influence of the preservative selected [1]
OCc1ccccc1 [Benzyl Alcohol]	not suitable	not compliant	compliant		
COC(=O)c1ccc(O)cc1 [Methyparaben]	not suitable				
Oc1ccccc1 [Phenol]			compliant	maintained	
CC[C@H](C)[C@H](NC(=O)[C@H](CO)NC(=O)[C@H](CCCCN)NC(=O)CNC(=O)[C@H](CCCCN)NC(=O)[C@H](CC(=O)O)NC(=O)[C@H](Cc1cnc[nH]1)NC(=O)[C@H](CC(C)C)NC(=O)[C@H](CC(C)C)NC(=O)[C@H](CCC(N)=O)NC(=O)[C@H](Cc1cnc[nH]1)NC(=O)[C@H](CCC(=O)O)NC(=O)[C@H](CO)NC(=O)[C@@H](NC(=O)[C@H](C)N)C(C)C)C(=O)N[C@@H](CCC(N)=O)C(=O)N[C@@H](CC(=O)O)C(=O)N[C@@H](CC(C)C)C(=O)N[C@@H](CCCNC(=N)N)C(=O)N[C@@H](CCCNC(=N)N)C(=O)N[C@@H](CCCNC(=N)N)C(=O)N[C@@H](CCC(=O)O)C(=O)N[C@@H](CC(C)C)C(=O)N[C@@H](CC(C)C)C(=O)N[C@@H](CCC(=O)O)C(=O)N[C@@H](CCCCN)C(=O)N[C@@H](CC(C)C)C(=O)N[C@@H](CC(C)C)C(=O)NC(C)(C)C(=O)N[C@@H](CCCCN)C(=O)N[C@@H](CC(C)C)C(=O)N[C@@H](Cc1cnc[nH]1)C(=O)N[C@H](C(=O)N[C@@H](C)C(N)=O)[C@@H](C)O [SEQ ID NO.: 2, [Glu^22,25, Leu^23,28,31, Aib^29, Lys^26,30]hPTHrP(1-34)NH2]					not significantly influenced
